Measurements published in US9340577B2, “HLA binding motifs and peptides and their uses” (priority 1992, dated 2016).
pIC50: −log10 of the molar value. Where two headings read alike, the source gives them in different places. No end group written: not given here.

Legend:
Assay in all cases: biochemical
DRB1*0802 = DRB1*0802 (Homo sapiens, UniProt P01903+P01911, A100R/A103L/A169T/F76Y/H45Y/I96F/K41T/L162R/M171V/P40S/Q125H/Q178H/Q39Y/Q99D/R218S/R42G/S66Y/V115G/W38E); format: binding
DRB1*0301 = DRB1*0301 (Homo sapiens, UniProt P01903+P01911, A100K/A102G/A103R/A169T/F55Y/I96L/K41T/L162R/M171V/P40S/Q125H/Q178H/Q39Y/R42S/S66N/T106N/T262R/W38E/Y61H); format: binding
Chain of DRB1*0301 (P01903 26-254 limits assumed, other chains not shown): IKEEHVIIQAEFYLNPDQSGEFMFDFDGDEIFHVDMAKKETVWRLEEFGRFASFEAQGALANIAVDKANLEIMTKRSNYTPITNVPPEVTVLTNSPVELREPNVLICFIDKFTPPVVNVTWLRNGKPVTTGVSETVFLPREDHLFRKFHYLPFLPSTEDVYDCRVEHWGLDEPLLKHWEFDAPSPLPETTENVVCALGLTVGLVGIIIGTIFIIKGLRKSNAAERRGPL

DR7 (DRB1*0701) = DR7 (DRB1*0701) (Homo sapiens, UniProt P01903+P01911, A100R/A102G/A103Q/D57E/D86V/E43K/F76Y/K127E/L162R/M171V/P40G/Q125H/Q99D/R33Q/R42Y/R54Q/S133A/S66F/T210M/V115G/Y107V/Y59L/Y89S); format: binding
DRB5*0101 = DRB5*0101 (Homo sapiens, UniProt P01903+Q30154)
DRB1*1501 = DRB1*1501 (Homo sapiens, UniProt P01903+P01911); format: binding
DRB1*1302 = DRB1*1302 (Homo sapiens, UniProt P01903+P01911, A100E/A169T/K41T/L162R/M171V/P40S/Q125H/Q178H/Q39Y/Q99D/R42S/S66N/T262R/V115G/W38E/Y61H); format: binding
Chain of DRB1*1302 (P01903 26-254 limits assumed, other chains not shown): as above

DRB1*1201 = DRB1*1201 (Homo sapiens, UniProt P01903+P01911, A100R/A169T/D57E/D86V/F55L/H45Y/K41T/L162R/M171V/P40S/Q125H/Q178H/Q39Y/Q99D/R42G/S66L/T262R/V114A/V67L/W38E/Y59H/Y61H/Y89S); format: binding
DRB4*0101 = DRB4*0101 (Homo sapiens, UniProt P01903+P13762, G164S); format: binding
DR1 (DRB1*0101) = DR1 (DRB1*0101) (Homo sapiens, UniProt P01903+P01911, A100R/D57E/F55L/F60I/F76Y/I96L/L162R/M171V/P40L/Q125E/R42F/V115G/Y59C); format: binding
DRB1*1101 = DRB1*1101 (Homo sapiens, UniProt P01903+P01911, A100R/A169T/A87E/I96F/K41T/L162R/M171V/P40S/Q125H/Q178H/Q39Y/Q99D/R42S/S66Y/T262R/V115G/W38E)
Chain of DRB1*1101 (P01903 26-254 limits assumed, other chains not shown): as above

DRB1*0901 = DRB1*0901 (Homo sapiens, UniProt P01903+P01911, A100R/A103E/D57H/D86V/F55Y/F60I/F76Y/I96F/K127E/L162R/M171V/P40D/Q125H/Q99R/R33Q/R42F/S133A/S66N/T210M/V115G/W38K/Y107V/Y59G/Y89S); format: binding
DR4w4 (DRB1*0401) = DR4w4 (DRB1*0401) (Homo sapiens, UniProt P01903+P01911, A100K/A169T/F76Y/I96L/K127E/L162R/M171V/N62H/P40V/Q125Y/R42H/S133A/S149N/S66Y/V115G/V209L/W38E); format: binding
DRB1*0405 = DRB1*0405 (Homo sapiens, UniProt P01903+P01911, A100R/A169T/D86S/F76Y/I96L/K127E/L162R/M171V/N62H/P40V/Q125Y/R42H/S133A/S149N/S66Y/V115G/V209L/W38E); format: binding

| Molecule | pIC50 (DRB1*0802) | pIC50 (DRB1*0301) | pIC50 (DR7 (DRB1*0701)) | pIC50 (DRB5*0101; Binding affinity DRB5 *0101) | pIC50 (DRB1*1501) | pIC50 (DRB1*1302) | pIC50 (DRB1*1201) | pIC50 (DRB4*0101) | pIC50 (DR1 (DRB1*0101)) | pIC50 (DRB1*1101; Binding affinity DRB1 *1101) | pIC50 (DRB1*0901) | pIC50 (DR4w4 (DRB1*0401)) | pIC50 (DRB1*0405) | pIC50 (DRB5*0101) | pIC50 (DRB1*1101) |
| --- | --- | --- | --- | --- | --- | --- | --- | --- | --- | --- | --- | --- | --- | --- | --- |
| GKSLFGMSLMKFLQG [Peptide 89.0019] | 6.15 | 5.56 | 7.80 | 6.29 | 5.56 | 5.69 | 7.10 | 6.43 | 7.77 | 5.87 | 6.83 | 6.33 |  |  |  |
| LKVLIQPYSIYAHLQ [Peptide 89.0098] | 5.32 | 6.72 | 7.59 | 6.00 | 7.10 | 6.17 | 6.63 |  |  | 6.17 | 4.89 | 6.28 | 5.65 |  |  |
| CC[C@H](C)[C@H](NC(=O)[C@H](Cc1c[nH]cn1)NC(=O)[C@H](C)NC(=O)[C@H](Cc1ccc(O)cc1)NC(=O)[C@H](CC(C)C)NC(=O)[C@@H](NC(=O)[C@H](Cc1ccccc1)NC(=O)[C@@H]1CCCN1C(=O)[C@H](CCC(N)=O)NC(=O)[C@@H](NC(=O)[C@H](CC(C)C)NC(=O)[C@@H](NC(=O)[C@H](CCCCN)NC(=O)[C@@H](N)Cc1ccccc1)[C@@H](C)O)[C@@H](C)CC)[C@@H](C)CC)C(=O)N[C@@H](CCC(N)=O)C(=O)O [Peptide 89.0025] |  | < 4.70 | 6.05 | 5.07 | 7.70 |  | 6.29 | 8.02 | 7.57 |  | 7.01 | 6.14 |  |  |  |
| RLTVAKGLSTLLHVP [Peptide 89.0028] | 6.30 | 4.84 | 6.74 |  |  | 6.17 | 6.56 | 6.39 | 7.34 | 6.63 | 6.40 | 7.28 |  |  |  |
| RETIEKLLSKLLCVS [Peptide 89.0006] | 6.19 | 4.89 | 6.73 | 5.15 | 6.63 | 6.22 | 6.28 |  | 6.70 | 6.15 | 5.19 | < 4.70 | 5.21 |  |  |
| AQEVHNDAQVLHVLK [Peptide 90.0047] |  | 7.68 | 5.11 | < 4.70 | 5.59 |  | < 4.70 |  | 6.39 | 4.97 | 4.99 | 5.34 | < 4.70 |  |  |
| CC(C)C[C@H](NC(=O)[C@@H](NC(=O)[C@H](Cc1c[nH]c2ccccc12)NC(=O)[C@H](CC(=O)O)NC(=O)[C@H](CCC(=O)O)NC(=O)[C@@H](NC(=O)[C@H](CCCCN)NC(=O)[C@H](Cc1ccc(O)cc1)NC(=O)[C@H](CCCNC(=N)N)NC(=O)[C@H](CO)NC(=O)[C@@H](N)CCC(N)=O)[C@@H](C)O)[C@@H](C)O)C(=O)N[C@@H](CCC(N)=O)C(=O)N[C@@H](CC(=O)O)C(=O)N[C@H](C(=O)N[C@@H](CS)C(=O)O)[C@@H](C)O [Peptide 90.0179] | 6.23 | 6.47 | 5.19 |  | 6.46 | 7.15 | 6.71 |  |  |  | 5.71 | 7.15 | 5.80 | < 4.70 | 5.68 |
| MNYVVWDSIYYITET [Peptide 90.0214] | < 4.70 | 6.82 | 7.26 | 4.74 | 5.51 | 7.77 | 5.94 |  | 5.58 | 5.79 | 6.05 |  | 6.34 |  |  |
| IHFIQGAVISFVNST [Peptide 89.0037] | 4.93 | < 4.70 | 6.47 | < 4.70 | 5.16 |  | 6.14 | 6.81 | 7.51 | < 4.70 |  | 5.29 |  |  |  |
| QQTVCREGVKRRLIL [Peptide 90.0129] | 5.43 | 6.15 | < 4.70 |  | < 4.70 | < 4.70 | 4.90 | 7.96 | 5.23 | 5.99 | 5.41 | 7.09 |  | < 4.70 |  |
